This note sets out measurements from US4472435A, “Benzophenone derivatives useful in treating heart failure” (Hoffman-La Roche Inc., priority 1980, dated 1984).

One series deals with aldosterone. The series is described as follows: Aldosterone antagonism in adrenalectomised rats (urine volume, sodium and potassium excretion). As to conditions: for Volume (urine volume), in %, based on control animals / [K+] (potassium excretion), in %, based on control animals / [Na+] (sodium excretion), in %, based on control animals: 30 min before aldosterone s.c., adrenalectomised rats, 3 h urine, control = aldosterone only. It is filed as in vivo, Female Holtzmann rats. The method, then:
These aldosterone-antagonistic properties can be dmonstrated in adrenalectomized rats as illustrated hereinafter.
If compounds of formula I are administered to the animals before the treatment with aldosterone, then there is observed, in comparison with the animals which are treated only with aldosterone (control animals), a pronounced increase of the sodium excretion (i.e. the sodium retention caused by aldosterone is antagonised), whereas the potassium excretion and the urine volume are influenced to a lesser extent.
The standard experiment is carried out as follows:
Female Holtzmann rats (150-180 g) are bilaterally adrenalectomised 70 to 74 hours before the beginning of the experiment. After the operation, the animals receive a customary rat dry feed and 0.9% sodium chloride solution for drinking. 16-17 hours before the beginning of the experiment the feed is removed from the animals, but they can subsequently drink, as before, 0.9% sodium chloride solution ad libitum. At the beginning of the experiment the substance to be tested as an aldosterone-antagonist is administered to the animals by means of a stomach probe. 30 minutes later the animals receive a subcutaneous injection of […] of aldosterone. After a further 90 minutes, the urinary bladders of the animals are emptied by careful suprapubic pressure, whereupon the animals are placed individually in metabolic cages without food and without drink. The urine of the animals is then collected for 3 hours, whereupon their urinary bladders are once more emptied. The spontaneously excreted urine and the remaining urine obtained at the conclusion of the experiment by pressing-out the urinary bladders are collected in graduated centrifuge glasses. Sodium and potassium concentrations in the urine are determined with a flame photometer.
(§1) The following Table contains results obtained in the previously described experiment with representative compounds of general formula I. In this Table there are given for each of the compounds figuring therein the dosage administered (in mg/kg p.o.) as well as the percentage variation in the urine volume, the sodium excretion and the potassium excretion in comparison with the control animals (i.e. in comparison with the animals treated only with aldosterone). Moreover, the Table contains data concerning the acute toxicity of the compounds investigated (LD 50 in mg/kg in the case of single oral administration to mice).

A short description of series [1]: Acute toxicity, single oral administration. The following applies: mouse, in vivo, mice.
Source text: as §1

[2] abbreviates: aldosterone in adrenalectomised rats, compared to untreated animals.

Usually LD50 stands for the dose expected to kill half of the subjects tested. A higher LD50 goes with lower toxicity. Take `CN(C(=O)CN)c1ccc(N)cc1C(=NO)c1ccccc1Cl` [CH3, COCH2 NH2, OH, Cl, NH2, 2,4'-diamino-2'-[o-chloro-α-(hydroxyimino)benzyl]-N-methylacetanilide]: in the series with aldosterone (1 mg/kg p.o.), the “Volume (urine volume), in %, based on control animals” value (shortened to “Volume (urine volume), in %, based”) worked out at 155%; the “[K+] (potassium excretion), in %, based on control animals” value (from here on “[K+] (potassium excretion), in %, based”) is 94%; the “[Na+] (sodium excretion), in %, based on control animals” value (from here on “[Na+] (sodium excretion), in %, based”) was found to be 254%. Besides, in series [1], the median lethal dose (LD50) is above 5000 mg/kg.

On to `NCC(=O)Nc1ccc([N+](=O)[O-])cc1C(=NO)c1ccccc1Cl` [H, COCH2 NH2, OH, Cl, NO2, 2-amino-2'-[o-chloro-α-(hydroxyimino)-benzyl]-4'-nitro-acetanilide], for which, in the series with aldosterone (0.1 mg/kg p.o.), the “Volume (urine volume), in %, based” value is 114%; the “[K+] (potassium excretion), in %, based” value is reported as 99%; the “[Na+] (sodium excretion), in %, based” value was found to be 211%. The molecule also gave an LD50 in series [1] above 5000 mg/kg.

For `CC(=NO)c1ccc(NC(=O)CN)c(C(=NO)c2ccccc2F)c1` [H, COCH2 NH2, OH, F, drawing 7, 2-amino-2'-[o-fluoro-α-(hydroxyimino)benzyl]-4'-[1-(hydroxyimino)ethyl]acetanilide], in the series on aldosterone (0.01 mg/kg p.o.), the “Volume (urine volume), in %, based” value came out at 161%; the “[K+] (potassium excretion), in %, based” value came out at 86%; the “[Na+] (sodium excretion), in %, based” value is reported as 215%. For the same molecule, in the series on aldosterone (1 mg/kg p.o.), the “Volume (urine volume), in %, based” value came to 156%; the “[K+] (potassium excretion), in %, based” value is listed as 102%; the “[Na+] (sodium excretion), in %, based” value was 327%. Moreover, the LD50 in series [1] is above 5000 mg/kg.

As for `NCC(=O)Nc1ccc([N+](=O)[O-])cc1C(=NO)c1ccccc1` [H, COCH2 NH2, OH, H, NO2, 2-amino-2'-[α-(hydroxyimino)-benzyl]-4'-nitro-acetanilide], in the series on aldosterone (0.1 mg/kg p.o.), the “Volume (urine volume), in %, based” value is 152%; the “[K+] (potassium excretion), in %, based” value stood at 97%; the “[Na+] (sodium excretion), in %, based” value was found to be 230%. Further, the LD50 in series [1] was above 5000 mg/kg.

Turning to `C[C@]12CCC(=O)C=C1CC[C@@H]1[C@@H]2[C@@H](O)C[C@]2(C=O)[C@@H](C(=O)CO)CC[C@@H]12` [aldosterone, reference compound], in the series on aldosterone (setting [2]), the “potassium excretion after aldosterone (in words)” value was “increased potassium excretion”, the “sodium excretion after aldosterone (in words)” value was “pronounced reduction of the sodium excretion” and the “urine volume after aldosterone (in words)” value is “reduction of the excreted urine volume”.
